Literature values, collected in patent EP0438554B1, “NITROGENOUS AMBRUTICINES, PROCESS FOR OBTAINING THEM AND THEIR USE” (Gesellschaft für Biotechnologische Forschung mbH (GBF), priority 1989, dated 1991).

Conditions: in vitro; S.M. Ringel et al., J. of Antibiotics 30, 371 (1977)

In the case of `CC[C@H]1O[C@@H](/C(C)=C/[C@H](C)/C=C/[C@H]2[C@@H](C)[C@@H]2/C=C/[C@@H]2O[C@H](CC(=O)O)C[C@H](O)[C@H]2O)CC=C1C` [Ambruticin], the “antibakterielle Wirkung” value is given as “schwach antibakterielle”.
